What all share (type): functional, cell-based
In experiment [1] the test system is HCC827. Nature of the experiment: Antiproliferative activity against human HCC827 cells harboring EGFR Del19 mutant assessed as inhibition of cell growth incubated for 48 to 72 hrs by CCK-8 assay. On the technique in general: Tetrazolium assays rely on reduction of a dye to a coloured formazan, in cell work by metabolically active cells.
The nature of experiment [2]: Antiproliferative activity against human H1975-TM cells harboring EGFR L858R/T790M/C797S mutant assessed as inhibition of cell growth incubated for 48 to 72 hrs by CCK-8 assay.
Experiment [3] deals with A549. Nature of the experiment: Antiproliferative activity against human A549 cells harboring EGFR wild type assessed as inhibition of cell growth incubated for 48 to 72 hrs by CCK-8 assay.
For experiment [4], the system named is NCI-H1975. Nature of the experiment: Antiproliferative activity against human NCI-H1975 cells harboring EGFR L858R/T790M double mutant assessed as inhibition of cell growth incubated for 48 to 72 hrs by CCK-8 assay.
Experiment [5] relates to A-431. Kind of experiment: Antiproliferative activity against human A-431 cells harboring EGFR wild type assessed as inhibition of cell growth incubated for 48 to 72 hrs by CCK-8 assay.

pIC50: −log10 of the molar value. Some results are limits rather than exact numbers.

A word on the pIC50: it is the IC50 on a negative log10 scale, so that one unit is a factor of ten. For `CCN(CC)C/C=C/C(=O)Nc1cc2c(Nc3ccc(F)c(Cl)c3)ncnc2cc1OCCCCCc1cn(CCCCC(=O)N[C@H](C(=O)N2C[C@H](O)C[C@H]2C(=O)N[C@H](C)c2ccc(-c3scnc3C)cc2)C(C)(C)C)nn1`, the pIC50 in experiment [1] is 7.27; in experiment [2], < 4.70; in experiment [3] it was < 4.70; in experiment [4], 5.73; in experiment [5] it was < 4.70.
With `Cc1ncsc1-c1ccc(CNC(=O)[C@@H]2C[C@@H](O)CN2C(=O)[C@@H](NC(=O)CCCCCCCCCCn2cc(COc3cc4ncnc(Nc5ccc(F)c(Cl)c5)c4cc3NC(=O)/C=C/CN(C)C)nn2)C(C)(C)C)cc1`, the pIC50 was 7.96 in experiment [1]; < 4.70 in experiment [2]; < 4.70 in experiment [3]; 5.83 in experiment [4]; < 4.70 in experiment [5].
For `Cc1ncsc1-c1ccc(CNC(=O)[C@@H]2C[C@@H](O)CN2C(=O)[C@@H](NC(=O)CCCCCCCn2cc(COCCOCCOCCOc3cc4ncnc(Nc5ccc(F)c(Cl)c5)c4cc3NC(=O)/C=C/CN3CCCCC3)nn2)C(C)(C)C)cc1`, the negative logarithm of the IC50 (pIC50) in experiment [1] was 7.37; in experiment [2], < 4.70; in experiment [3], < 4.70; in experiment [4], 5.59; in experiment [5], 4.94.
Consider `Cc1ncsc1-c1ccc(CNC(=O)[C@@H]2C[C@@H](O)CN2C(=O)[C@@H](NC(=O)CCCCCCCCCCn2cc(COCCOCCOCCOc3cc4ncnc(Nc5ccc(F)c(Cl)c5)c4cc3NC(=O)/C=C/CN3CCCCC3)nn2)C(C)(C)C)cc1`, for which the pIC50 was 7.82 in experiment [1]; < 4.70 in experiment [2]; < 4.70 in experiment [3]; 5.63 in experiment [4]; 4.94 in experiment [5].
Take `CCN(CC)C/C=C/C(=O)Nc1cc2c(Nc3ccc(F)c(Cl)c3)ncnc2cc1OCCCCCc1cn(CCCCCCCC(=O)N[C@H](C(=O)N2C[C@H](O)C[C@H]2C(=O)N[C@H](C)c2ccc(-c3scnc3C)cc2)C(C)(C)C)nn1`: the negative-log IC50 (pIC50) was 7.52 in experiment [1]; < 4.70 in experiment [2]; < 4.70 in experiment [3]; 6.02 in experiment [4]; < 4.70 in experiment [5].
`CCN(CC)C/C=C/C(=O)Nc1cc2c(Nc3ccc(F)c(Cl)c3)ncnc2cc1OCCCCCc1cn(CCCCCCCCCCC(=O)N[C@H](C(=O)N2C[C@H](O)C[C@H]2C(=O)N[C@H](C)c2ccc(-c3scnc3C)cc2)C(C)(C)C)nn1`: the negative logarithm of the IC50 (pIC50) was 8.00 in experiment [1]; < 4.70 in experiment [2]; < 4.70 in experiment [3]; 5.27 in experiment [4]; < 4.70 in experiment [5].
`Cc1ncsc1-c1ccc(CNC(=O)[C@@H]2C[C@@H](O)CN2C(=O)[C@@H](NC(=O)COCCOCCn2cc(CCCCCOc3cc4ncnc(Nc5ccc(F)c(Cl)c5)c4cc3NC(=O)/C=C/CN3CCCCC3)nn2)C(C)(C)C)cc1`: the pIC50 was 8.40 in experiment [1]; < 4.70 in experiment [2]; < 4.70 in experiment [3]; 5.71 in experiment [4]; < 4.70 in experiment [5].
With `CCN(CC)C/C=C/C(=O)Nc1cc2c(Nc3ccc(F)c(Cl)c3)ncnc2cc1OCCCCCc1cn(CCOCCOCC(=O)N[C@H](C(=O)N2C[C@H](O)C[C@H]2C(=O)NCc2ccc(-c3scnc3C)cc2)C(C)(C)C)nn1`, the negative logarithm of the IC50 (pIC50) was 7.08 in experiment [1]; < 4.70 in experiment [2]; < 4.70 in experiment [3]; 5.55 in experiment [4]; < 4.70 in experiment [5].
Take `Cc1ncsc1-c1ccc(CNC(=O)[C@@H]2C[C@@H](O)CN2C(=O)[C@@H](NC(=O)CCCCCCCCCCn2cc(COc3cc4ncnc(Nc5ccc(F)c(Cl)c5)c4cc3NC(=O)/C=C/CN3CCCCC3)nn2)C(C)(C)C)cc1`: the pIC50 is 8.22 in experiment [1]; < 4.70 in experiment [2]; < 4.70 in experiment [3]; < 4.70 in experiment [4]; < 4.70 in experiment [5].
Turning to `CCN(CC)C/C=C/C(=O)Nc1cc2c(Nc3ccc(F)c(Cl)c3)ncnc2cc1OCc1cn(CCCCC(=O)N[C@H](C(=O)N2C[C@H](O)C[C@H]2C(=O)N[C@H](C)c2ccc(-c3scnc3C)cc2)C(C)(C)C)nn1`, the pIC50 is 7.41 in experiment [1]; < 4.70 in experiment [2]; < 4.70 in experiment [3]; 5.13 in experiment [4]; < 4.70 in experiment [5].
For `Cc1ncsc1-c1ccc(CNC(=O)[C@@H]2C[C@@H](O)CN2C(=O)[C@@H](NC(=O)CCCCCCCn2cc(CCCCCOc3cc4ncnc(Nc5ccc(F)c(Cl)c5)c4cc3NC(=O)/C=C/CN3CCCCC3)nn2)C(C)(C)C)cc1`, the negative logarithm of the IC50 (pIC50) in experiment [1] is 7.28; in experiment [2] it was < 4.70; in experiment [3], < 4.70; in experiment [4], 5.24; in experiment [5], < 4.70.
As for `Cc1ncsc1-c1ccc(CNC(=O)[C@@H]2C[C@@H](O)CN2C(=O)[C@@H](NC(=O)CCCCn2cc(CCCCCOc3cc4ncnc(Nc5ccc(F)c(Cl)c5)c4cc3NC(=O)/C=C/CN3CCCCC3)nn2)C(C)(C)C)cc1`, the negative-log IC50 (pIC50) was 7.34 in experiment [1]; < 4.70 in experiment [2]; < 4.70 in experiment [3]; 4.83 in experiment [4]; < 4.70 in experiment [5].
On to `Cc1ncsc1-c1ccc(CNC(=O)[C@@H]2C[C@@H](O)CN2C(=O)[C@@H](NC(=O)CCCCCCCCCCn2cc(COc3cc4ncnc(Nc5ccc(F)c(Cl)c5)c4cc3NC(=O)/C=C/CN3CCOCC3)nn2)C(C)(C)C)cc1`, for which the negative-log IC50 (pIC50) in experiment [1] was 7.72; in experiment [2], < 4.70; in experiment [3] it was < 4.70; in experiment [4] it was < 4.70; in experiment [5] it was < 4.70.
In the case of `CCN(CC)C/C=C/C(=O)Nc1cc2c(Nc3ccc(F)c(Cl)c3)ncnc2cc1OCCCCCc1cn(CCCCCCCCCCC(=O)N[C@H](C(=O)N2C[C@H](O)C[C@H]2C(=O)NCc2ccc(-c3scnc3C)cc2)C(C)(C)C)nn1`, the negative logarithm of the IC50 (pIC50) in experiment [1] is 8.00; in experiment [2], < 4.70; in experiment [3], < 4.70; in experiment [4] it was 5.51; in experiment [5], < 4.70.
With `Cc1ncsc1-c1ccc(CNC(=O)[C@@H]2C[C@@H](O)CN2C(=O)[C@@H](NC(=O)CCCCCCCCCCn2cc(COc3cc4ncnc(Nc5ccc(F)c(Cl)c5)c4cc3NC(=O)/C=C/CN3CCN(C)CC3)nn2)C(C)(C)C)cc1`, the pIC50 was 7.42 in experiment [1]; < 4.70 in experiment [2]; < 4.70 in experiment [3]; 4.85 in experiment [4]; < 4.70 in experiment [5].
In the case of `Cc1ncsc1-c1ccc(CNC(=O)[C@@H]2C[C@@H](O)CN2C(=O)[C@@H](NC(=O)CCCCCCCCCCn2cc(CCCCCOc3cc4ncnc(Nc5ccc(F)c(Cl)c5)c4cc3NC(=O)/C=C/CN3CCCCC3)nn2)C(C)(C)C)cc1`, the pIC50 in experiment [1] is 7.57; in experiment [2], < 4.70; in experiment [3], < 4.70; in experiment [4], < 4.70; in experiment [5] it was < 4.70.
In the case of `Cc1ncsc1-c1ccc(CNC(=O)[C@@H]2C[C@@H](O)CN2C(=O)[C@@H](NC(=O)COCCOCCOCCn2cc(CCCCCOc3cc4ncnc(Nc5ccc(F)c(Cl)c5)c4cc3NC(=O)/C=C/CN3CCCCC3)nn2)C(C)(C)C)cc1`, the pIC50 in experiment [1] is 7.05; in experiment [2], < 4.70; in experiment [3], < 4.70; in experiment [4], 5.64; in experiment [5], < 4.70.
In the case of `CCN(CC)C/C=C/C(=O)Nc1cc2c(Nc3ccc(F)c(Cl)c3)ncnc2cc1OCCCCCc1cn(CCCCC(=O)N[C@H](C(=O)N2C[C@H](O)C[C@H]2C(=O)NCc2ccc(-c3scnc3C)cc2)C(C)(C)C)nn1`, the negative-log IC50 (pIC50) in experiment [1] is 7.23; in experiment [2], < 4.70; in experiment [3], < 4.70; in experiment [4] it was 5.46; in experiment [5], < 4.70.
Consider `Cc1ncsc1-c1ccc(CNC(=O)[C@@H]2C[C@@H](O)CN2C(=O)[C@@H](NC(=O)CCCCCCCCCn2cc(CCCCCOc3cc4ncnc(Nc5ccc(F)c(Cl)c5)c4cc3NC(=O)/C=C/CN3CCCCC3)nn2)C(C)(C)C)cc1`, for which the negative-log IC50 (pIC50) in experiment [1] was 7.74; in experiment [2] it was < 4.70; in experiment [3], 5.03; in experiment [4] it was 5.03; in experiment [5] it was < 4.70.
As to `CCN(CC)C/C=C/C(=O)Nc1cc2c(Nc3ccc(F)c(Cl)c3)ncnc2cc1OCCCCCc1cn(CCCCCCCC(=O)N[C@H](C(=O)N2C[C@H](O)C[C@H]2C(=O)NCc2ccc(-c3scnc3C)cc2)C(C)(C)C)nn1`, the negative-log IC50 (pIC50) in experiment [1] was 7.51; in experiment [2], < 4.70; in experiment [3], < 4.70; in experiment [4], 5.86; in experiment [5], < 4.70.
Regarding `Cc1ncsc1-c1ccc(CNC(=O)[C@@H]2C[C@@H](O)CN2C(=O)[C@@H](NC(=O)COCCn2cc(CCCCCOc3cc4ncnc(Nc5ccc(F)c(Cl)c5)c4cc3NC(=O)/C=C/CN3CCCCC3)nn2)C(C)(C)C)cc1`, the negative logarithm of the IC50 (pIC50) in experiment [1] is 6.77; in experiment [2], < 4.70; in experiment [3] it was < 4.70; in experiment [4] it was 4.85; in experiment [5] it was < 4.70.
Regarding `Cc1ncsc1-c1ccc(CNC(=O)[C@@H]2C[C@@H](O)CN2C(=O)[C@@H](NC(=O)CCCCn2cc(COCCOCCOCCOc3cc4ncnc(Nc5ccc(F)c(Cl)c5)c4cc3NC(=O)/C=C/CN3CCCCC3)nn2)C(C)(C)C)cc1`, the negative-log IC50 (pIC50) in experiment [1] was 7.30; in experiment [2] it was < 4.70; in experiment [3] it was < 4.70; in experiment [4], 5.30; in experiment [5], < 4.70.
Consider `CCN(CC)C/C=C/C(=O)Nc1cc2c(Nc3ccc(F)c(Cl)c3)ncnc2cc1OCc1cn(CCCCCCCCCCC(=O)N[C@H](C(=O)N2C[C@H](O)C[C@H]2C(=O)N[C@H](C)c2ccc(-c3scnc3C)cc2)C(C)(C)C)nn1`, for which the negative logarithm of the IC50 (pIC50) in experiment [1] is 8.00; in experiment [2] it was < 4.70; in experiment [3] it was < 4.70; in experiment [4], 6.16; in experiment [5], < 4.70.

Values taken from ChEMBL document CHEMBL5523716, “Discovery of novel EGFR-PROTACs capable of degradation of multiple EGFR-mutated proteins” (Eur J Med Chem, 2024).
